For series [1] the following is noted: cited from earlier work.
Series [2] relates to marine bacteria strain S1. The series is described as follows: disc inhibition assay, strain S1. Type of series: cell-based, Rhodovulum iodosum. An outline of the steps: (§1)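 50 μg compound/6 mm disc (from 2 mg/ml DMSO stock); DMSO blank disc control. Lawn swabbed on Marine Agar from marine broth culture. Overnight, 35° C, dark. Readout: inhibition zone diameter (calipers), mean of 2 replicates.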

The test system of series [3] is marine bacteria strain S3. The series is described as follows: disc inhibition assay, strain S3. Type of series: cell-based, Erythrobacter aquimaris. The method in brief:
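Antibacterial susceptibility was measured by agar disc diffusion. Compounds dissolved in DMSO were applied to 6 mm sterile discs and laid on Marine Agar lawns of a Singapore coastal marine bacterium cultured in marine broth. After overnight dark incubation at 35° C, clearing zone diameters were measured with Vernier calipers, and the two replicates were averaged.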

Series [4] concerns marine bacteria strain S4. The series is described as follows: disc inhibition assay, strain S4. To be noted: Guptibacillus algicola, S4, 24 h. Format: cell-based, Bacillus algicola. An outline of the steps:
as §1

Series [5] has as its system marine bacteria strain S9. The series is described as follows: disc inhibition assay, strain S9. Format: cell-based, Bacillus algicola. To be noted: Guptibacillus algicola, S9, 24 h. An outline of the steps:
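Compounds were dissolved at 2 mg/ml in DMSO (stock) and 50 μg loaded per 6 mm disc, with DMSO-only discs as control. Discs went onto Marine Agar lawns swabbed from marine broth cultures, plates were incubated overnight in the dark at 35° C, and clearing-zone diameter was measured by calipers, averaged over two replicates.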

Series [6] relates to marine bacteria strain S10. The series is described as follows: disc inhibition assay, strain S10. Format: cell-based, Halobacillus trueperi. To be noted: Halobacillus trueperi, S10, 24 h. An outline of the steps:
as §1

Series [7] deals with marine bacteria strain S14. The series is described as follows: disc inhibition assay, strain S14. Format: cell-based, Vibrio probioticus.
Series [8] has as its system marine bacteria strain S16. The series is described as follows: disc inhibition assay, strain S16. Type of series: cell-based, Pseudoalteromonas piscicida. The method in brief:
as §1

Series [9] has as its system marine bacteria strain S17. The series is described as follows: disc inhibition assay, strain S17. Format: cell-based, Gordonia terrae. An outline of the steps: as §1
Series [10] has as its system marine bacteria strain S18. The series is described as follows: disc inhibition assay, strain S18. Format: cell-based, Microbacterium esteraromaticum.
Series [11] concerns marine bacteria strain S27. The series is described as follows: disc inhibition assay, strain S27. Type of series: cell-based, Tenacibaculum lutimaris. The method in brief: as §1
The subject of series [12] is marine bacteria strain S28. The series is described as follows: disc inhibition assay, strain S28. Format: cell-based, Arthrobacter protophormial. The method in brief: as §1
Series [13] has as its system marine bacteria strain S29. The series is described as follows: disc inhibition assay, strain S29. Type of series: cell-based, Bacillus hwajinpoensis. To be noted: Guptibacillus hwajinpoensis, S29, 24 h. The method in brief: as §1
For series [14], the system named is marine bacteria strain S30. The series is described as follows: disc inhibition assay, strain S30. To be noted: Bacillus, S30, 24 h. Type of series: cell-based, Bacillus borophilicus. The method in brief: as §1
The subject of series [15] is Escherichia coli (Strain K12; ATCC 15222). The series is described as follows: disc inhibition assay, REF 1. Format: cell-based.
Series [16] relates to Escherichia coli (Strain DH5a). The series is described as follows: disc inhibition assay, REF 2. Format: cell-based.
Series [17] has as its system Pseudomonas aeruginosa (strain LMG 12228; ATCC 15692). The series is described as follows: disc inhibition assay, REF 3. Format: cell-based.
Series [18] has as its system Pseudomonas putida (Strain KT2440; BCRC 10459). The series is described as follows: disc inhibition assay, REF 4. Type of series: cell-based.

Where a name gives a salt, the structure may show the parent alone.

Regarding `CN(C)C(=O)C(CCN1CCC(O)(c2ccc(Cl)cc2)CC1)(c1ccccc1)c1ccccc1` [Loperamide hydrochloride], in series [1], the solubility in water entry was “slightly soluble”.

As to `CN(C)[C@@H]1C(O)=C(C(N)=O)C(=O)[C@@]2(O)C(O)=C3C(=O)c4c(O)cccc4[C@@](C)(O)[C@H]3C[C@@H]12` [TETR, Tetracycline, reference compound], the zone of inhibition (commonly the size of the clear area around the sample on an inoculated plate) in series [2] (strain 1, 5 ug) is on record as “−”; in series [2] (strain 1, 30 ug), “−”; in series [3] (strain 3, 5 ug) it was “−”; in [3] (strain 3, 30 ug) it was “−”; in series [7] (strain 14, 5 ug), “−”; in [8] (strain 16, 5 ug), “−”. For the same molecule, the zone of inhibition result in series [8] (strain 16, 30 ug) is given as “−”; in series [9] (strain 17, 5 ug) it was “−”; in series [9] (strain 17, 30 ug), “−”; in series [10] (strain 18, 5 ug) it was “−”; in series [11] (strain 27, 5 ug), “−”; in [12] (strain 28, 5 ug), “−”. For the same molecule, the zone of inhibition result in [15] (REF 1, 5 ug) was “+ (2-5 mm zone of inhibition around each disk was observed.)”; in [15] (REF 1, 30 ug), “++ (5-10 mm zone was observed.)”; in series [16] (REF 2, 5 ug), “+ (2-5 mm zone of inhibition around each disk was observed.)”; in series [16] (REF 2, 30 ug), “++ (5-10 mm zone was observed.)”; in series [17] (REF 3, 5 ug), “+ (2-5 mm zone of inhibition around each disk was observed.)”; in series [17] (REF 3, 30 ug) it was “++ (5-10 mm zone was observed.)”. The zone of inhibition entry in series [18] (REF 4, 5 ug) was “++ (5-10 mm zone was observed.)”; in [18] (REF 4, 30 ug) it was “++ (5-10 mm zone was observed.)”. Besides, the zone of inhibition at 5 µg/disc in series [4] (strain 4, 5 ug) lay in the range of 2 to 5 mm; in series [5] (strain 9, 5 ug), 2 to 5 mm; in series [6] (strain 10, 5 ug), 2 to 5 mm; in series [13] (strain 29, 5 ug), 2 to 5 mm; in [14] (strain 30, 5 ug), 2 to 5 mm. Besides, the zone of inhibition at 30 µg/disc in series [4] (strain 4, 30 ug) lay in the range of 5 to 10 mm; in series [5] (strain 9, 30 ug), 5 to 10 mm; in series [6] (strain 10, 30 ug), 2 to 5 mm; in series [7] (Vibrio, S14, 24 h) it was 2 to 5 mm; in series [10] (Microbacterium esteraromaticum, S18, 24 h, strain 18, 30 ug), 2 to 5 mm; in series [11] (Tenacibaculum lutimaris, S27, 24 h, strain 27, 30 ug), 2 to 5 mm. Moreover, the zone of inhibition at 30 µg/disc in [12] (Arthrobacter, S28, 24 h, strain 28, 30 ug) is 2 to 5 mm; in [13] (strain 29, 30 ug), 5 to 10 mm; in series [14] (strain 30, 30 ug) it was 2 to 5 mm.

Source of the values: patent US20160311788A1, “Antifouling Compounds And Use Thereof” (National University of Singapore, priority 2008, published 2016).
